According to patent publication US9440950B2, “Arginine methyltransferase inhibitors and uses thereof” (Epizyme, Inc., priority 2013, dated 2016):
pIC50: −log10 of the molar value.

Molecular target: T1, human PRMT6 (Homo sapiens, UniProt Q96LA8)
T1 construct: Flag-PRMT6-His; made in house; host or cells: HEK 293F cells (BacMam virus, pFastBacMam)
Test: PRMT6 Biochemical Assay
Details: peptide substrate, 3H-SAM Flashplate assay
Text: S-adenosylmethionine (SAM), S-adenosylhomocysteine (SAH), bicine, Tween20, dimethylsulfoxide (DMSO), bovine skin gelatin (BSG), sodium butyrate and Tris(2-carboxyethyl)phosphine hydrochloride solution (TCEP) were purchased from Sigma-Aldrich at the highest level of purity possible. ^3H-SAM was purchase from American Radiolabeled Chemicals with a specific activity of 80 Ci/mmol. 384-well streptavidin Flashplates were purchased from PerkinElmer.
Peptide representative of human histone H4 residues 36-50 was synthesized with an N-terminal linker-affinity tag motif and a C-terminal amide cap by 21st Century Biochemicals. The peptide was purified by high-performance liquid chromatography (HPLC) to greater than 95% purity and confirmed by liquid chromatography mass spectrometry (LC-MS). The sequence was Biot-Ahx-[…]-amide and contained a monomethylated lysine at position 44 (SEQ ID NO.:5).
Full-length human PRMT6 (NM_018137.2) transcript clone was amplified from an HEK 293 cDNA library, incorporating a flanking 5′ sequence encoding a FLAG tag ([…]) (SEQ ID NO.:6) fused directly to Ser 2 of PRMT6 and a 3′ sequence encoding a hexa His sequence (HHHHHH) fused directly to Asp 375. The amplified gene was subcloned into pFastBacMam (Viva Biotech).
Recombinant baculovirus were generated according to Bac-to-Bac kit instructions (Life Technologies). […] Infections were carried out at 37° C. for 48 hours, harvested by centrifugation, and stored at −80° C. for purification.
Column was washed with 20 mM imidazole in the same buffer and Flag-PRMT6-His was eluted with 150 mM imidazole. Pooled fractions were dialysed against buffer Ni-A and further purified by anti-flag M2 affinity chromatography. Flag-PRMT6-His was eluted with 200 ug/ml FLAG peptide in the same buffer. Pooled fractions were dialysed in 20 mM Tris, 150 mM NaCl, 10% glycerol and 5 mM β-mercaptoethanol, pH 7.8. The purity of recovered protein was 95%.
General Procedure for PRMT6 Enzyme Assays on Peptide Substrates.
The assays were all performed in a buffer consisting of 20 mM Bicine (pH=7.6), 1 mM TCEP, 0.005% BSG, and 0.002% Tween 20, prepared on the day of use. Compounds in 100% DMSO (1 ul) were spotted into a polypropylene 384-well V-bottom plates (Greiner) using a Platemate Plus outfitted with a 384-channel head (Thermo Scientific). DMSO (1 ul) was added to Columns 11, 12, 23, 24, rows A-H for the maximum signal control and 1 ul of SAH, a known product and inhibitor of PRMT6, was added to columns 11, 12, 23, 24, rows I-P for the minimum signal control. A cocktail (40 ul) containing the PRMT6 enzyme was added by Multidrop Combi (Thermo-Fisher). The compounds were allowed to incubate with PRMT6 for 30 min at room temperature, then a cocktail (10 ul) containing SAM and peptide was added to initiate the reaction (final volume=51 ul). The final concentrations of the components were as follows: PRMT6 was 1 nM, ^3H-SAM was 200 nM, non-radiolabeled SAM was 250 nM, peptide was 75 nM, SAH in the minimum signal control wells was 1 mM, and the DMSO concentration was 2%. The assays were stopped by the addition of non-radiolabeled SAM (10 ul) to a final concentration of 400 uM, which dilutes the ^3H-SAM to a level where its incorporation into the peptide substrate is no longer detectable. 50 ul of the reaction in the 384-well polypropylene plate was then transferred to a 384-well Flashplate and the biotinylated peptides were allowed to bind to the streptavidin surface for at least 1 hour before being washed once with 0.1% Tween20 in a Biotek ELx405 plate washer. The plates were then read in a PerkinElmer TopCount plate reader to measure the quantity of ^3H-labeled peptide bound to the Flashplate surface, measured as disintegrations per minute (dpm) or alternatively, referred to as counts per minute (cpm).
Where dpm=disintegrations per minute, cmpd=signal in assay well, and min and max are the respective minimum and maximum signal controls. […]

T1 sequence (Q96LA8 with tags, fused parts or gaps): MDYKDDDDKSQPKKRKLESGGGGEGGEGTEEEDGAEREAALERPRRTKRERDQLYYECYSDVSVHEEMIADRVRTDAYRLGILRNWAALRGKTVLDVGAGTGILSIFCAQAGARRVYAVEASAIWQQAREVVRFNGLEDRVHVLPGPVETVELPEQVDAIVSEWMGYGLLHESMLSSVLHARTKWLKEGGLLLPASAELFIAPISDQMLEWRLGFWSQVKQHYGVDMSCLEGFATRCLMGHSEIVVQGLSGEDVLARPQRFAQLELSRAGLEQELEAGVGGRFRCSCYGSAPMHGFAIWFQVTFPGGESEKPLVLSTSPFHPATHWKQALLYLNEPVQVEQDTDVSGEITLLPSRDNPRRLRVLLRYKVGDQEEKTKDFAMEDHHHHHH

Row | Structure (SMILES) | pIC50
1 | CNCCN(C)Cc1c[nH]nc1-c1cccnc1 [Compound 1] | ≥ 7.00
2 | CNCCN(C)Cc1c[nH]nc1-c1ccc(N)nc1 [Compound 3] | ≥ 7.00
3 | CN(CCN)Cc1c[nH]nc1-c1cncc(S(C)(=O)=O)c1 [Compound 4] | 5.52 to 6.00
4 | Cc1cncc(-c2n[nH]cc2CN(C)CCN)c1 [Compound 6] | 5.00 to 5.52
5 | CN(CCN)Cc1c[nH]nc1-c1cncc(F)c1 [Compound 7] | ≥ 7.00
6 | Cc1cc(-c2n[nH]cc2CN(C)CCN)cnc1Cl [Compound 10] | ≥ 7.00
7 | COc1cc(-c2n[nH]cc2CN(C)CCN)ccn1 [Compound 11] | ≥ 7.00
8 | COc1cc(-c2n[nH]cc2CN(C)CCN)c(Cl)cn1 [Compound 12] | 6.00 to 7.00
9 | COc1ncc(Cl)cc1-c1n[nH]cc1CN(C)CCN [Compound 14] | 5.52 to 6.00
10 | COc1ncccc1-c1n[nH]cc1CN(C)CCN [Compound 15] | 6.00 to 7.00
11 | CN(CCN)Cc1c[nH]nc1-c1cncc(C#N)c1 [Compound 18] | 6.00 to 7.00
12 | CN(CCN)Cc1c[nH]nc1-c1cncc(Cl)c1 [Compound 19] | ≥ 7.00
13 | CN(CCN)Cc1c[nH]nc1-c1ccc(N2CCOCC2)nc1 [Compound 20] | 6.00 to 7.00
14 | CC(C)CN(C)c1ccc(-c2n[nH]cc2CN(C)CCN)cn1 [Compound 21] | 6.00 to 7.00
15 | CC(C)Oc1ccc(-c2n[nH]cc2CN(C)CCN)cn1 [Compound 22] | ≥ 7.00
16 | CN(CCN)Cc1c[nH]nc1-c1ccc(NCc2ccccc2)nc1 [Compound 25] | ≥ 7.00
17 | CC(C)CNc1ccc(-c2n[nH]cc2CN(C)CCN)cn1 [Compound 26] | ≥ 7.00
18 | CN(CCN)Cc1c[nH]nc1-c1ccccn1 [Compound 27] | 5.00 to 5.52
19 | CN(CCN)Cc1c[nH]nc1-c1cnccc1C(F)(F)F [Compound 29] | 6.00 to 7.00
20 | CNCCN(C)Cc1c[nH]nc1-c1ccc(N(C)CCC(C)C)nc1 [Compound 30] | ≥ 7.00
21 | CNCCN(C)Cc1c[nH]nc1-c1ccc(N(CC(C)C)CC(C)C)nc1 [Compound 31] | 5.52 to 6.00
22 | CNCCN(C)Cc1c[nH]nc1-c1ccc(N(C)CC(C)C)nc1 [Compound 32, N^1-((3-(6-(isobutyl(methyl)amino)pyridin-3-yl)-1H-pyrazol-4-yl)methyl)-N^1,N^2-dimethylethane-1,2-diamine] | 6.00 to 7.00
23 | CNCCN(C)Cc1c[nH]nc1-c1ccc(OCC(C)C)nc1 [Compound 35, N^1-((3-(6-iso-butoxypyridin-3-yl)-1H-pyrazol-4-yl)methyl)-N^1,N^2-dimethylethane-1,2-diamine] | ≥ 7.00

Further lines, results first:

Row | pIC50 | Structure (SMILES)
24 | 5.52 to 6.00 | CNCCN(C)Cc1c[nH]nc1-c1ccc(O)nc1 [Compound 2]
25 | ≥ 7.00 | COc1ccc(-c2n[nH]cc2CN(C)CCN)cn1 [Compound 5]
26 | ≥ 7.00 | CN(CCN)Cc1c[nH]nc1-c1cccnc1 [Compound 8]
27 | ≥ 7.00 | CN(CCN)Cc1c[nH]nc1-c1ccncc1 [Compound 9]
28 | ≥ 7.00 | CN(CCN)Cc1c[nH]nc1-c1ccc(C(F)(F)F)nc1 [Compound 13, N^1-methyl-N^1-((3-(6-(trifluoromethyl)pyridin-3-yl)-1H-pyrazol-4-yl)methyl)ethane-1,2-diamine]
29 | 6.00 to 7.00 | COc1ccncc1-c1n[nH]cc1CN(C)CCN [Compound 16]
30 | 6.00 to 7.00 | Cc1ccncc1-c1n[nH]cc1CN(C)CCN [Compound 17]
31 | ≥ 7.00 | CN(CCN)Cc1c[nH]nc1-c1ccc(N(C)Cc2ccccc2)nc1 [Compound 23]
32 | 6.00 to 7.00 | CCN(CC)c1ccc(-c2n[nH]cc2CN(C)CCN)cn1 [Compound 24]
33 | ≥ 7.00 | CN(CCN)Cc1c[nH]nc1-c1ccc(C#N)nc1 [Compound 28, 5-(4-(((2-aminoethyl)(methyl)amino)methyl)-1H-pyrazol-3-yl)picolinonitrile]
34 | 6.00 to 7.00 | CNCCN(C)Cc1c[nH]nc1-c1ccc(N(C)C(C)C)nc1 [Compound 33, N^1-((3-(6-(isopropyl(methyl)amino)pyridin-3-yl)-1H-pyrazol-4-yl)methyl)-N^1,N^2-dimethylethane-1,2-diamine]
35 | 6.00 to 7.00 | CCN(CCC(C)C)c1ccc(-c2n[nH]cc2CN(C)CCNC)cn1 [Compound 34, N^1-((3-(6-(ethyl(isopentyl)amino)pyridin-3-yl)-1H-pyrazol-4-yl)methyl)-N^1,N^2-dimethylethane-1,2-diamine]
36 | 5.52 to 6.00 | CCN(CC(C)C)c1ccc(-c2n[nH]cc2CN(C)CCNC)cn1 [Compound 36]
